Results reported in patent US11584726B2 (Beijing Foreland Pharma Co., Ltd., priority 2017, dated 2023).

Tests used:
[1] = test system: CD4 on peripheral blood cell; assay: Effects on the expression of CD4 on peripheral blood cell in mice (flow cytometry); assay type: in vivo, mice (C57 BL/6); conditions: intragastric, once a day for four days, mouse peripheral blood
Procedure: (§1) FITC Rat Anti-Mouse CD8a: BD, Cat. #553030.
(§2) PE Rat Anti-Mouse CD4: BD, Cat. #557308.
(§3) APC Rat Anti-Mouse CD19: BD, Cat. #561738.
(§4) The compounds used in the test were prepared by the chemical department of Beijing Forelandpharma Co. Ltd.
(§5) Routs of administration: intragastric administration, once a day, and continuous administration for four days.
(§6) After the administration, supraorbital venous blood was collected from the mouse, added to an EP tube (1.5 ml) containing an anticoagulant, and kept on the ice. The resulting mixture was transferred to a test tube, centrifuged at 4° C. and 1200 rpm/min for 5 min, removed with the supernatant liquid, added with a lysate, processed with cell lysis on the ice for 5 min, then pre-dyed, added with diluted antibody, and incubated away from light for 30 min. After the incubation, the resulting mixture was washed, removed with the supernatant liquid, added with stationary liquid, and kept in a refrigerator at 4° C. away from light for the test of flow cytometry.

[2] = test system: CD8 on peripheral blood cell; assay: Effects on the expression of CD8 on peripheral blood cell in mice (flow cytometry); assay type: in vivo, mice (C57 BL/6); conditions: intragastric, once a day for four days, mouse peripheral blood
Procedure: as §1, §2, §3, §4, §5, §6

[3] = test system: CD19 on peripheral blood cell; assay: Effects on the expression of CD19 on peripheral blood cell in mice (flow cytometry); assay type: in vivo, mice (C57 BL/6); conditions: intragastric, once a day for four days, mouse peripheral blood
Procedure: as §1, §2, §3, §4, §5, §6

[4] = Stability observation on the isolated solid; assay type: physicochemical; conditions: white solid; stored at low temperature under the protection of nitrogen
Procedure: 0.426 g (0.727 mmol) of intermediate 80 was dissolved in 16 ml of methanol, added with 0.01 ml of concentrated hydrochloric acid, purged with nitrogen to remove air, followed by the addition of 0.09 g of palladium 10% on carbon, purged with hydrogen, and reacted overnight at 95° C. The reaction was monitored by TLC (DCM:MeOH=10:1). After the reaction was completed, the resulting mixture was filtered, and the filter cake was washed with hot methanol. The filtrate was concentrated by rotary evaporation, added with 1% sodium hydrate solution to adjust pH to 9-10. […] Yield: 8.5%. LC-MS: 406 [M+1]^+, tR=1.328 min. A corresponding hydrogenchloride salt was obtained by mixing the solid with a solution of hydrogen chloride in methanol under stirring.

S1P1 = S1P1 (Homo sapiens (Human), UniProt P21453); assay: PathHunter β-arrestin test S1P1; assay type: cell-based; conditions: PathHunter β-arrestin engineering cells
Procedure: (§7) 1. PathHunter β-arrestin testing system was used to detect the biological activity of the compounds.
(§8) 2. β-arrestin engineering cells were cultured on […] culture plates and placed in an incubator at 37° C.
(§9) 3. The sample to be tested was diluted with reaction solution in 5-fold dilution.
(§10) 4. The diluted sample to be tested was added to the engineering cells and the reaction was induced and observed.
(§11) 5. The chemiluminescence signal produced in the test may be detected by multifunctional enzyme marker (PerkinElmer Envision™).
(§12) Test Analysis and Results
(§13) 6. The data obtained was analyzed using the data analysis software of CBIS (ChemInnovation, CA) to achieve EC50, and the test results are shown in Table 2.

S1P2 = S1P2 (Homo sapiens (Human), UniProt O95136); assay: PathHunter β-arrestin test S1P2; assay type: cell-based; conditions: PathHunter β-arrestin engineering cells
Procedure: as §7, §8, §9, §10, §11, §12, §13

S1P3 = S1P3 (Homo sapiens (Human), UniProt Q99500); assay: PathHunter β-arrestin test S1P3; assay type: cell-based; conditions: PathHunter β-arrestin engineering cells
Procedure: as §7, §8, §9, §10, §11, §12, §13

S1P4 = S1P4 (Homo sapiens (Human), UniProt O95977); assay: PathHunter β-arrestin test S1P4; assay type: cell-based; conditions: PathHunter β-arrestin engineering cells
Procedure: as §7, §8, §9, §10, §11, §12, §13

S1P5 = S1P5 (Homo sapiens (Human), UniProt Q9H228); assay: Fluorescence detection FLIPR assay, activation of GPCR (S1P5); assay type: cell-based; conditions: total detection time 180 s, read-out: FLIPR Test EC50 S1P5
Procedure: The sample to be tested was dissolved in DMSO and diluted with detection buffer solution in 3-fold dilution. A reagent and a positive control were diluted in the same way.
The reactions of the agonist, the reagent and the positive control were detected by a device of […] with a total detection time of 180 s to estimate the ability to activate GPCR (S1P5) of each compound.

hERG potassium channel = hERG potassium channel (Homo sapiens (Human), UniProt Q12809); assay: hERG patch clamp test in HEK293 engineering cells; assay type: cell-based; conditions: HEK293 cells stably expressing hERG potassium channel
Procedure: 1. HEK293 engineering cells stably expressed with hERG potassium channel were used to test the compounds.
The cells were separated by TrypLE™ Express before the test. 3×10^3 of cells were spread on a cover plate, cultured in 24-well plate and tested 18 hours later. The signals produced by voltage stimulation of potassium currents in cells were recorded by electrophysiological techniques.
Data Analysis and Results
First of all, currents after the action of drug of each concentration and blank control were standardized separately
[formula] and then the corresponding inhibition ratio of each concentration was calculated
[formula] The average and the standard error were calculated for each concentration, and 50% inhibiting concentration of each compound was calculated according to the following equation: […]
The dose-dependent effect was obtained through nonlinear fitting with the equation above. C refers to drug concentration, IC50 refers to 50% inhibiting concentration and h refers to hill coefficient. The curve fitting and the calculation of IC50 were processed by IGOR software.

S1P1, sequence (P21453 whole entry, species assumed): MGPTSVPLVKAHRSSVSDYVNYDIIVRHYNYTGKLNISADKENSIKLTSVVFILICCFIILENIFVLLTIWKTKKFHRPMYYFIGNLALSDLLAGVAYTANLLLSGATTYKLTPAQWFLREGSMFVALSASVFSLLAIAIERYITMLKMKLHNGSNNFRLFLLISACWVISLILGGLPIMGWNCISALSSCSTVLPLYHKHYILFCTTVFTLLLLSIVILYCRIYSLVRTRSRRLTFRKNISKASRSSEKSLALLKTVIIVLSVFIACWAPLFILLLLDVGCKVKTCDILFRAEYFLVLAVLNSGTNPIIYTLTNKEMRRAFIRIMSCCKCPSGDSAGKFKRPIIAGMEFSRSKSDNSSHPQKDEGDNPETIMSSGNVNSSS
S1P4, sequence (O95977 whole entry, species assumed): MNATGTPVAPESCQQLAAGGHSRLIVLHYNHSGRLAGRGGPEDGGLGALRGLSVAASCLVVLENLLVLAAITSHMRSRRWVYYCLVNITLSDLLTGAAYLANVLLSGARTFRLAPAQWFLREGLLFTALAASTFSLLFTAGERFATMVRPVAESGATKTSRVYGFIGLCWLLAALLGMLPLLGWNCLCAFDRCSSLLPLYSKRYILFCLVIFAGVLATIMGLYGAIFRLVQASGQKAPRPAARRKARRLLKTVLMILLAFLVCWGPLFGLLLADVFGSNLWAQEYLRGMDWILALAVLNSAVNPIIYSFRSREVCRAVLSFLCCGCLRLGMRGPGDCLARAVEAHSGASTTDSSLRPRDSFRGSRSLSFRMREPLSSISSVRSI
S1P3, sequence (Q99500 whole entry, species assumed): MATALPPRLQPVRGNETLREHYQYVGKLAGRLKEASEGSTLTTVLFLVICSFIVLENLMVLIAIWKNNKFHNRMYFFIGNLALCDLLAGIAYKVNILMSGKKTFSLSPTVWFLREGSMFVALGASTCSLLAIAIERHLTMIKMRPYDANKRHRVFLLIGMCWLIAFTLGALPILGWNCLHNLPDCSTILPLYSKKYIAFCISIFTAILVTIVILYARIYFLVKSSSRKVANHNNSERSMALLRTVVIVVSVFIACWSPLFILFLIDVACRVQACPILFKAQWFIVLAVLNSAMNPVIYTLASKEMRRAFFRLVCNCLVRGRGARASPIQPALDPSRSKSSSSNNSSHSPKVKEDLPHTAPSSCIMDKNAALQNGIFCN
hERG potassium channel, sequence (Q12809 whole entry): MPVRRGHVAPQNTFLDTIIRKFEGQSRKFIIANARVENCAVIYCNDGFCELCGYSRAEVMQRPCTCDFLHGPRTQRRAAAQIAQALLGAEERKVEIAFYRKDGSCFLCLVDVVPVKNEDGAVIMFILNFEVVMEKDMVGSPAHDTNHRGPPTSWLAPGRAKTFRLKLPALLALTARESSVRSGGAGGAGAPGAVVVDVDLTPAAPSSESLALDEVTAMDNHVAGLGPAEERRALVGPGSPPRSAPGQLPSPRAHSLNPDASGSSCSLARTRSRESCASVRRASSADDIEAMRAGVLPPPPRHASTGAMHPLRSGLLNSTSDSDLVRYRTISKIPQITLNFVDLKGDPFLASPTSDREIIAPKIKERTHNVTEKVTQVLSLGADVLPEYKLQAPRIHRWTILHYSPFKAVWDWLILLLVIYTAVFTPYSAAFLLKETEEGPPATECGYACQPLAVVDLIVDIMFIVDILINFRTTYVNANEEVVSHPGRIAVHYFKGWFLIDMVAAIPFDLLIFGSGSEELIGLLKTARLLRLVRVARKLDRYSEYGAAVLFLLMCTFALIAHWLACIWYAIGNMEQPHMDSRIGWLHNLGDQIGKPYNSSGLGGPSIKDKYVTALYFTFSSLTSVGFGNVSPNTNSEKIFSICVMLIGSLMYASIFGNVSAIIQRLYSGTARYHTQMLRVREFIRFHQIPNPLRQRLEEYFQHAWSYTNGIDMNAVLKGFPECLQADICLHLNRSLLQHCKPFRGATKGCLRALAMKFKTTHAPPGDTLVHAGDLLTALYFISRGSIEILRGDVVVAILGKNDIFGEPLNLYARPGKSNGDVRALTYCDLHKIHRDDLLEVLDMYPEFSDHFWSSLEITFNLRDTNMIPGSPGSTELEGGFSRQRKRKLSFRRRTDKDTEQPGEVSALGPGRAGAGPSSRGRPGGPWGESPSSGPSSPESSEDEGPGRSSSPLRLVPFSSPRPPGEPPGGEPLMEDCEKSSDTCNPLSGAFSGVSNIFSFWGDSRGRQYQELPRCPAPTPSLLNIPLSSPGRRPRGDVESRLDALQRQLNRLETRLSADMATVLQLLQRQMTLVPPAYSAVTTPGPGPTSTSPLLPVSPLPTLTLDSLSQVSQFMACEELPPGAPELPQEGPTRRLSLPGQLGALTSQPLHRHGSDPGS
S1P2, sequence (O95136 whole entry, species assumed): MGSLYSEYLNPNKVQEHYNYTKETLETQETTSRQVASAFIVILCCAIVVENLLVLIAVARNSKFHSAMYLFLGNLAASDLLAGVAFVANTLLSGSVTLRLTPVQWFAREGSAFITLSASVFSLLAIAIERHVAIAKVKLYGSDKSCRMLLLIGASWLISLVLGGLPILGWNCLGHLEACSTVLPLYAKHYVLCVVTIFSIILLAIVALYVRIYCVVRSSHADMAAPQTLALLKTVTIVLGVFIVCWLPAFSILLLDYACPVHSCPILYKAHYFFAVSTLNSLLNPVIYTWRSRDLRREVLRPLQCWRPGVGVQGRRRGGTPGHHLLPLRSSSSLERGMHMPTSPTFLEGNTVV
S1P5, sequence (Q9H228 whole entry, species assumed): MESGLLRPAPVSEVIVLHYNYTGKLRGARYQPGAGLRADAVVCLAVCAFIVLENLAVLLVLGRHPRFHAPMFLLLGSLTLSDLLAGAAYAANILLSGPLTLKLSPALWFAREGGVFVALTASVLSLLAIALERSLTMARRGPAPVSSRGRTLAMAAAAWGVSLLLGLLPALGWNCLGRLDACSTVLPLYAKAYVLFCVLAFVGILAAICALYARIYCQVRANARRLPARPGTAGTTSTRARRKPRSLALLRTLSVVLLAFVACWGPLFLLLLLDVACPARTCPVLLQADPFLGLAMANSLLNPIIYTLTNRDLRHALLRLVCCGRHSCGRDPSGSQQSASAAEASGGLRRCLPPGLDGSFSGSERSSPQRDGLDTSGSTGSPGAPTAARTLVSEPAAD

Row | SMILES | CD4 (%) ([1]; 1 mg/kg) | CD4 (%) ([1]; 5 mg/kg) | CD8 (%) ([2]; 1 mg/kg) | CD8 (%) ([2]; 5 mg/kg) | CD19 (%) ([3]; 1 mg/kg) | CD19 (%) ([3]; 5 mg/kg) | stability of the solid [4] | EC50 (S1P1) | EC50 (S1P2) | EC50 (S1P3) | EC50 (S1P4) | EC50 (S1P5) | IC50 (hERG potassium channel)
1 | COc1ccc(-c2nnc(-c3ccc4c(c3)C[C@](N)(CO)CC4)o2)cc1F [Example 8, (S)-(2-amino-7-(5-(3-fluoro-4-methoxyphenyl)-1,3,4-oxadiazol-2-yl)-1,2,3,4-tetrahydronaphthalen-2-yl)methanol] | 33.4% | 30.0% | 16.6% | 16.0% | 36.8% | 41.7% | – | – | – | – | – | – | –
2 | CC(=O)Nc1ccc(-c2nnc(-c3ccc4c(c3)C[C@](N)(CO)CC4)o2)cc1 [Example 9, (S)—N-(4-(5-(7-amino-7-(hydroxymethyl)-5,6,7,8-tetrahydronaphthalen-2-yl)-1,3,4-oxadiazol-2-yl)phenyl)acetamide] | 33.1% | 31.9% | 17.3% | 17.0% | 42.5% | 44.3% | – | – | – | – | – | – | –
3 | N[C@@]1(CO)CCc2ccc(-c3nnc(-c4ccc(O)c(C(F)(F)F)c4)o3)cc2C1 [Example 10, (S)-4-(5-(7-amino-7-(hydroxymethyl)-5,6,7,8-tetrahydronaphthalen-2-yl)-1,3,4-oxadiazol-2-yl)-2-(trifluoromethyl)phenol] | 31.1% | 27.7% | 15.3% | 14.0% | 44.3% | 35.7% | prone to oxidative degradation | – | – | – | – | – | –
4 | N[C@@]1(CO)CCc2ccc(-c3nnc(-c4ccc(C(F)(F)F)c(F)c4)o3)cc2C1 [Example 11, (S)-(2-amino-7-(5-(3-fluoro-4-(trifluoromethyl)phenyl)-1,3,4-oxadiazol-2-yl)-1,2,3,4-tetrahydronaphthalen-2-yl)methanol] | 23.5% | 20.5% | 14.9% | 13.8% | 52.1% | 54.0% | – | – | – | – | – | – | –
5 | N[C@@]1(CO)CCc2ccc(-c3nnc(-c4cc(C(F)(F)F)cc(C(F)(F)F)c4)o3)cc2C1 [Example 12, (S)-(2-amino-7-(5-(3,5-bis(trifluoromethyl)phenyl)-1,3,4-oxadiazol-2-yl)-1,2,3,4-tetrahydronaphthalen-2-yl)methanol] | 15.2% | 2.8% | 9.6% | 3.4% | 53.2% | 38.1% | – | – | – | – | – | – | –
6 | CCOc1ccc(-c2nnc(-c3ccc4c(c3)C[C@](N)(CO)CC4)o2)cc1OCC [Example 13, (S)-(2-amino-7-(5-(3,4-diethoxyphenyl)-1,3,4-oxadiazol-2-yl)-1,2,3,4-tetrahydronaphthalen-2-yl)methanol] | 23.4% | 11.6% | 12.7% | 9.4% | 56.8% | 53.8% | – | 21.6 nM | > 100000 nM | 613 nM | > 100000 nM | > 10000 nM | –
7 | CC(C)Oc1ccc(-c2nnc(-c3ccc4c(c3)C[C@](N)(CO)CC4)o2)cc1C(F)(F)F [Example 14, (S)-(2-amino-7-(5-(4-isopropoxy-3-(trifluoromethyl)phenyl)-1,3,4-oxadiazol-2-yl)-1,2,3,4-tetrahydronaphthalen-2-yl)methanol] | – | – | – | – | – | – | – | – | – | – | – | – | 870 nM
8 | CCCCCCCCCCCCC/C=C/[C@@H](O)[C@@H](N)COP(=O)(O)O [Example S1P, sphingosine-1-phosphate, reference compound] | – | – | – | – | – | – | – | 25.2 nM | – | 26.3 nM | 190 nM | – | –
